One compound from US20110021554A1, “IMMUNE RESPONSE MODIFIER FORMULATIONS AND METHODS” (priority 2004, published 2011) can be followed below.

The series is described as follows: Effect of sodium chloride on solubility of the drug. The conditions noted are these: apparently due to salt formation. Format: physicochemical.

Turning to `CCc1nc2c(N)nc3ccccc3c2n1CCCCNS(C)(=O)=O` [N-[4-(4-amino-2-ethyl-1H-imidazo[4,5-c]quinolin-1-yl)butyl]methanesulfonamide], the “Solubility of the drug in presence of sodium chloride” value was “reduces solubility of the drug”.
